Assays:
[1] = target: NT-3 growth factor receptor (Homo sapiens, UniProt Q16288); conditions: Compound concentration 100.0 nM
[2] = target: Mitogen-activated protein kinase 9 (Homo sapiens) (UniProt P45984); conditions: Compound concentration 100.0 nM
[3] = test system: ALK tyrosine kinase receptor (Homo sapiens), Q9UM73 [C1156Y]; conditions: Compound concentration 100.0 nM
[4] = target: D(2) dopamine receptor (Homo sapiens) (UniProt P14416); conditions: Compound concentration 10.0 uM
[5] = target: Cyclin-dependent kinase 14 (Homo sapiens) (UniProt O94921); conditions: Compound concentration 100.0 nM
[6] = target: Ephrin type-B receptor 2 (Homo sapiens) (UniProt P29323); conditions: Compound concentration 100.0 nM
[7] = target: Casein kinase I isoform alpha-like (Homo sapiens) (UniProt Q8N752); conditions: Compound concentration 100.0 nM
[8] = target: Tyrosine-protein kinase ITK/TSK (Homo sapiens) (UniProt Q08881); conditions: Compound concentration 100.0 nM
[9] = target: Serine/threonine-protein kinase 36 (Homo sapiens) (UniProt Q9NRP7); conditions: Compound concentration 100.0 nM
[10] = target: G protein-coupled receptor kinase 4 (Homo sapiens) (UniProt P32298); conditions: Compound concentration 100.0 nM
[11] = target: Serine/threonine-protein kinase RIO3 (Homo sapiens) (UniProt O14730); conditions: Compound concentration 100.0 nM
[12] = target: Fibroblast growth factor receptor 2 (Homo sapiens) (UniProt P21802); conditions: Compound concentration 100.0 nM
[13] = target: Ephrin type-A receptor 3 (Homo sapiens) (UniProt P29320); conditions: Compound concentration 100.0 nM
[14] = target: cAMP-dependent protein kinase catalytic subunit PRKX (Homo sapiens) (UniProt P51817); conditions: Compound concentration 100.0 nM
[15] = target: Testis-specific serine/threonine-protein kinase 1 (Homo sapiens) (UniProt Q9BXA7); conditions: Compound concentration 100.0 nM
Chain of Testis-specific serine/threonine-protein kinase 1 (Homo sapiens) (Q9BXA7 whole entry): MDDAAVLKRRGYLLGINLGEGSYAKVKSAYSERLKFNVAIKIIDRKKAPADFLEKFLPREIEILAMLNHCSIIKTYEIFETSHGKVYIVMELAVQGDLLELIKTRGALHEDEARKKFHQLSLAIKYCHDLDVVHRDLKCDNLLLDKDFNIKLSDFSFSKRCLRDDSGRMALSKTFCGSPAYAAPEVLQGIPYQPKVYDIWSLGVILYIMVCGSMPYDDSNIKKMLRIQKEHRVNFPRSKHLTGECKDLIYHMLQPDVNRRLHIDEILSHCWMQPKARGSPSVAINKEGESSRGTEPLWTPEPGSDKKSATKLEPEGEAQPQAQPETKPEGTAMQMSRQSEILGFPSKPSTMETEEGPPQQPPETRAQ

[16] = target: Insulin-like growth factor 1 receptor (Homo sapiens) (UniProt P08069); conditions: Compound concentration 100.0 nM
[17] = target: Dual specificity tyrosine-phosphorylation-regulated kinase 1A (Homo sapiens) (UniProt Q13627); conditions: Compound concentration 100.0 nM
[18] = target: Serine/threonine-protein kinase TNNI3K (Homo sapiens) (UniProt Q59H18); conditions: Compound concentration 100.0 nM
Chain of Serine/threonine-protein kinase TNNI3K (Homo sapiens) (Q59H18 whole entry): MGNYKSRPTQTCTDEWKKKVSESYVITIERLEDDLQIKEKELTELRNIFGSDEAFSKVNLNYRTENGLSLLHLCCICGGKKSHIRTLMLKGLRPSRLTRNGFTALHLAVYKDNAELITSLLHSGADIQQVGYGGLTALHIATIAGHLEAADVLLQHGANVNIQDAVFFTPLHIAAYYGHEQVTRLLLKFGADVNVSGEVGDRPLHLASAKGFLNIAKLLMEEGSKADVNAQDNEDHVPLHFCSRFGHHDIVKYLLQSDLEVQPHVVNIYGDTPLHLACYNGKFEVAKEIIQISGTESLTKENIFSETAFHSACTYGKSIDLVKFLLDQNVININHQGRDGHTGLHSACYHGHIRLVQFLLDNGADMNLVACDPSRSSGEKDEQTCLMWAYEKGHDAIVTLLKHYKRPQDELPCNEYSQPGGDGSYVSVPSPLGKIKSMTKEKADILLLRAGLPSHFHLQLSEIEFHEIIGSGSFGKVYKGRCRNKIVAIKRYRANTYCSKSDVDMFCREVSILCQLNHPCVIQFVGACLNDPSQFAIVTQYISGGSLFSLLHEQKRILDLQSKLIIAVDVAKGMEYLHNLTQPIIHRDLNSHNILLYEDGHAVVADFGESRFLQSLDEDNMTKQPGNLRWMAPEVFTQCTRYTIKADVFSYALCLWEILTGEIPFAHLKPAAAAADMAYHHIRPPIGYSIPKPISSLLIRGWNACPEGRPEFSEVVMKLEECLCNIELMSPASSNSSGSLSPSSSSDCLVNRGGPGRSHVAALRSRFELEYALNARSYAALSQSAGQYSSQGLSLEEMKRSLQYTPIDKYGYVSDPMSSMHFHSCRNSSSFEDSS

[19] = target: 1-phosphatidylinositol 3-phosphate 5-kinase (Homo sapiens) (UniProt Q9Y2I7); conditions: Compound concentration 100.0 nM
[20] = test system: Epidermal growth factor receptor (Homo sapiens), P00533 [UNDEFINED MUTATION]; conditions: Compound concentration 100.0 nM
[21] = target: ALK tyrosine kinase receptor (Homo sapiens) (UniProt Q9UM73); conditions: Compound concentration 100.0 nM
[22] = target: Mitotic checkpoint serine/threonine-protein kinase BUB1 (Homo sapiens) (UniProt O43683); conditions: Compound concentration 100.0 nM
[23] = target: Phosphatidylinositol 4,5-bisphosphate 3-kinase catalytic subunit beta isoform (Homo sapiens) (UniProt P42338); conditions: Compound concentration 100.0 nM
[24] = target: Mitogen-activated protein kinase kinase kinase 5 (Homo sapiens) (UniProt Q99683); conditions: Compound concentration 100.0 nM
[25] = test system: Mast/stem cell growth factor receptor Kit (Homo sapiens), P10721 [D816V]; conditions: Compound concentration 100.0 nM
[26] = target: Tyrosine-protein kinase JAK1 (Homo sapiens) (UniProt P23458); conditions: Compound concentration 100.0 nM
[27] = target: Muscarinic acetylcholine receptor M5 (Homo sapiens) (UniProt P08912); conditions: Compound concentration 10.0 uM
[28] = target: Insulin receptor-related protein (Homo sapiens) (UniProt P14616); conditions: Compound concentration 100.0 nM
[29] = target: Dual specificity protein kinase CLK3 (Homo sapiens) (UniProt P49761); conditions: Compound concentration 100.0 nM
Chain of Dual specificity protein kinase CLK3 (Homo sapiens) (P49761 whole entry, looked up): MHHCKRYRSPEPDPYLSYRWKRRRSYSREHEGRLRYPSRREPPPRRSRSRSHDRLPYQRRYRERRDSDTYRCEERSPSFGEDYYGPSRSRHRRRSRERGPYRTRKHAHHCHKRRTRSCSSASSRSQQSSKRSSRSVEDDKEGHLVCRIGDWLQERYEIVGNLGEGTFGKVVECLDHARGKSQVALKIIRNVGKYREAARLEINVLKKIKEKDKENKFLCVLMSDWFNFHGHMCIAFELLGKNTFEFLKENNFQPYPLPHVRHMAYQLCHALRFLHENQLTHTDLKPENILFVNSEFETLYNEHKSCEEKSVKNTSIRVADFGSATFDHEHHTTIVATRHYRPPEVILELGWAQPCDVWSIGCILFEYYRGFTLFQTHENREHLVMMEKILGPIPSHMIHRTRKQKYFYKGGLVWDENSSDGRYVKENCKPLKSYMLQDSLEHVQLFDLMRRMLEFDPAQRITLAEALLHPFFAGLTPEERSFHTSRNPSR

[30] = target: Bone morphogenetic protein receptor type-1B (Homo sapiens) (UniProt O00238); conditions: Compound concentration 100.0 nM
[31] = target: Sodium-dependent dopamine transporter (Homo sapiens) (UniProt Q01959); conditions: Compound concentration 10.0 uM
[32] = target: Leukocyte tyrosine kinase receptor (Homo sapiens) (UniProt P29376); conditions: Compound concentration 100.0 nM
[33] = target: Tyrosine-protein kinase SYK (Homo sapiens, UniProt P43405); conditions: Compound concentration 100.0 nM
[34] = target: Serine/threonine-protein kinase PknB (Mycobacterium tuberculosis) (UniProt P9WI81); conditions: Compound concentration 100.0 nM
[35] = target: Phosphorylase b kinase gamma catalytic chain, skeletal muscle/heart isoform (Homo sapiens) (UniProt Q16816); conditions: Compound concentration 100.0 nM
Chain of Phosphorylase b kinase gamma catalytic chain, skeletal muscle/heart isoform (Homo sapiens) (Q16816 whole entry, looked up, canonical isoform): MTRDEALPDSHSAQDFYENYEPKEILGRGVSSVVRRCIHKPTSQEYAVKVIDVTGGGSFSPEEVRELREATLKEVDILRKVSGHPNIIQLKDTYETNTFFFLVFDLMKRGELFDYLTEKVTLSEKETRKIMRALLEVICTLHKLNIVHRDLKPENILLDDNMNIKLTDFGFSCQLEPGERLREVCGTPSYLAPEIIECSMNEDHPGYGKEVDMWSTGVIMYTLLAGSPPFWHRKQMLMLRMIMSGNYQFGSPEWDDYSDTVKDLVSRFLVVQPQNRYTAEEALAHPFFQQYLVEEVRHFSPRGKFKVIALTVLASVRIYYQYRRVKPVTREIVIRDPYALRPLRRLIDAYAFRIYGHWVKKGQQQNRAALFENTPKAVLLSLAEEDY

[36] = target: Dual specificity protein kinase CLK2 (Homo sapiens) (UniProt P49760); conditions: Compound concentration 100.0 nM
[37] = target: Serine/threonine-protein kinase Nek9 (Homo sapiens) (UniProt Q8TD19); conditions: Compound concentration 100.0 nM
[38] = target: Insulin receptor (Homo sapiens) (UniProt P06213); conditions: Compound concentration 100.0 nM
[39] = target: Non-receptor tyrosine-protein kinase TNK1 (Homo sapiens) (UniProt Q13470); conditions: Compound concentration 100.0 nM
[40] = target: SRSF protein kinase 2 (Homo sapiens) (UniProt P78362); conditions: Compound concentration 100.0 nM
[41] = target: Tyrosine-protein kinase JAK2 (Homo sapiens, UniProt O60674); conditions: Compound concentration 100.0 nM
[42] = target: Mitogen-activated protein kinase kinase kinase 3 (Homo sapiens) (UniProt Q99759); conditions: Compound concentration 100.0 nM
[43] = target: Serine/threonine-protein kinase 32B (Homo sapiens) (UniProt Q9NY57); conditions: Compound concentration 100.0 nM
Chain of Serine/threonine-protein kinase 32B (Homo sapiens) (Q9NY57 whole entry): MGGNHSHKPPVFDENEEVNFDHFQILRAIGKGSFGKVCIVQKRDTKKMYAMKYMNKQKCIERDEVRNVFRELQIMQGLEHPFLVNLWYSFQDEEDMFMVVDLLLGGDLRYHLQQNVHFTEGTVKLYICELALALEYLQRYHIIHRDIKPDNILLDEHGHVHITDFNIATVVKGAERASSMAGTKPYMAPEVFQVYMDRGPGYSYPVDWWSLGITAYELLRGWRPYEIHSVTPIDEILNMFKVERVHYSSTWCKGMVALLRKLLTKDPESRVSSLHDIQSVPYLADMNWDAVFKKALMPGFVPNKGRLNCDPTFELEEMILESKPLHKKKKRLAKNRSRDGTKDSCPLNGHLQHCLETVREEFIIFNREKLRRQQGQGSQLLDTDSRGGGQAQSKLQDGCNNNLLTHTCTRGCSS

[44] = target: Muscle, skeletal receptor tyrosine-protein kinase (Homo sapiens) (UniProt O15146); conditions: Compound concentration 100.0 nM
Chain of Muscle, skeletal receptor tyrosine-protein kinase (Homo sapiens) (O15146 whole entry): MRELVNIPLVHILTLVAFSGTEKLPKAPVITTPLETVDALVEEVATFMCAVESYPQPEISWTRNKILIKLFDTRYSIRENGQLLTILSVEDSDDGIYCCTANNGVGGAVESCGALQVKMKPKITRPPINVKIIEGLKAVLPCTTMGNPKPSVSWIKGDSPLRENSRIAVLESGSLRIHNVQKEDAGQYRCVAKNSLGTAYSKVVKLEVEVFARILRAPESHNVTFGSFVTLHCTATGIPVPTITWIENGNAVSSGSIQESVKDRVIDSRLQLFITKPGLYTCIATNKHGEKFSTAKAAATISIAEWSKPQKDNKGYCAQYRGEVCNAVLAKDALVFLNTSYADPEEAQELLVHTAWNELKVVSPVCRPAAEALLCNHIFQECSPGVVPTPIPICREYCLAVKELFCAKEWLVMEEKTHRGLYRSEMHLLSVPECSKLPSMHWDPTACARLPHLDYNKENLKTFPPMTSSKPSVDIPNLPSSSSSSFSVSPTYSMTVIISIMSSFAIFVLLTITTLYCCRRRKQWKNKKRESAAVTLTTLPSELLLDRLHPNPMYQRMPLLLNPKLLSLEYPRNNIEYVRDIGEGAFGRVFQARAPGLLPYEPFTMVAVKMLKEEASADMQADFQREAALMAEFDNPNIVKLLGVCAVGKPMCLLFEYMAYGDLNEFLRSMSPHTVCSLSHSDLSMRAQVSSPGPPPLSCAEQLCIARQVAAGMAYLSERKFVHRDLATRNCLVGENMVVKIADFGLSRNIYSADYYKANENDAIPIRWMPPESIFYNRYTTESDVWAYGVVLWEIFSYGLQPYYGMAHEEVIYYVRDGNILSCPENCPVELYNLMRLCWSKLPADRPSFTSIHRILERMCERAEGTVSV

[45] = test system: Hepatocyte growth factor receptor (Homo sapiens), P08581 [Y1235D]; conditions: Compound concentration 100.0 nM

Chain of ALK tyrosine kinase receptor (Homo sapiens), Q9UM73 [C1156Y] (Q9UM73 whole entry C1156Y, looked up): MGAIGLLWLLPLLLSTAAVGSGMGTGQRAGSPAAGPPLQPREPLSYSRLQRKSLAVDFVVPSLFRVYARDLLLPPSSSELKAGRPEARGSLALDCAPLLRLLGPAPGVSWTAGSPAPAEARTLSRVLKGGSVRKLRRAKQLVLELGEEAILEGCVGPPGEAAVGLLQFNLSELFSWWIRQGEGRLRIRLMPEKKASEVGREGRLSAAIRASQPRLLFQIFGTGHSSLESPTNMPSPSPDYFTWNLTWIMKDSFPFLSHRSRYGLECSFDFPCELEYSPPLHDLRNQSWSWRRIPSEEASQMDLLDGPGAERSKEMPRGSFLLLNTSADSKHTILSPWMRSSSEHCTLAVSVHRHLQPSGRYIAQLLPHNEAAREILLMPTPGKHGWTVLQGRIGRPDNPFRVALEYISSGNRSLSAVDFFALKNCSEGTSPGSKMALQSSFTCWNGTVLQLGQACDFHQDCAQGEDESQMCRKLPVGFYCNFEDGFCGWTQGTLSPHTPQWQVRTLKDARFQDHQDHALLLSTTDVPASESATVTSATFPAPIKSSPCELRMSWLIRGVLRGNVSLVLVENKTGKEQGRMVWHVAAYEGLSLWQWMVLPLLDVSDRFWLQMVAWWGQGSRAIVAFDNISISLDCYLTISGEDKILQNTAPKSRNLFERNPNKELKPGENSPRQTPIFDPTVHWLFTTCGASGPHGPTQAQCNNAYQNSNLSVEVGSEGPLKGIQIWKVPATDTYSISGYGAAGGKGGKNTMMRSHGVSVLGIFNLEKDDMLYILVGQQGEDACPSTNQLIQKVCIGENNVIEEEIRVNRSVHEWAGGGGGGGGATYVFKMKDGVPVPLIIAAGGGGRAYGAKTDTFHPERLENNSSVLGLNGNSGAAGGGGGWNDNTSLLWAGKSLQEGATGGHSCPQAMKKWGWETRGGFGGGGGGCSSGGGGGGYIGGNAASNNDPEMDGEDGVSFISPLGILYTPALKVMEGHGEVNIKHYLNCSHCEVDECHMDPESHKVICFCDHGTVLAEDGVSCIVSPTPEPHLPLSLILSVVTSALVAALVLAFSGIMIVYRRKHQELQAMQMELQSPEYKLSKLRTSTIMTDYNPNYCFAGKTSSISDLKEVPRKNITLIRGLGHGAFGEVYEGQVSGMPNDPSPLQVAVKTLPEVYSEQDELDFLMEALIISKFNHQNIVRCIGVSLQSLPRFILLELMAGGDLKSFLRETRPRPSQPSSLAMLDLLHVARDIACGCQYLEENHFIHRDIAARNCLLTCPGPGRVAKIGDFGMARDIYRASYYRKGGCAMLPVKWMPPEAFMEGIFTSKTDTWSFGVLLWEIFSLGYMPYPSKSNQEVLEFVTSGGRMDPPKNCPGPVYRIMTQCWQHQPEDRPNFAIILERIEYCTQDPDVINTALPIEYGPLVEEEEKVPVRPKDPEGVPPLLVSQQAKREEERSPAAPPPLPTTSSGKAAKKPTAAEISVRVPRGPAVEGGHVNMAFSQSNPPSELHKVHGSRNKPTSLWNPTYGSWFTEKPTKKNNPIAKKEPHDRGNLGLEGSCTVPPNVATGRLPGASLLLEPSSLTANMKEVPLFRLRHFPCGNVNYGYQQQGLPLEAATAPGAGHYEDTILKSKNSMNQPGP

Cc1ccc(-c2cnc([C@@]3(O)CC[C@H](C(=O)O)C(C)(C)C3)s2)cc1Nc1cccc(C(F)(F)F)n1 [MRL-SYKi-NC]
active: residual activity [2] 45.3% | inhibition [31] 71%
inactive: residual activity [1] 80% | residual activity [3] 100% | inhibition [4] -5.34% | residual activity [5] 100% | residual activity [6] 100% | residual activity [7] 91.9% | residual activity [8] 94.7% | residual activity [9] 95.5% | residual activity [10] 100% | residual activity [11] 100% | residual activity [12] 100% | residual activity [13] 93.7% | residual activity [14] 97.2% | residual activity [15] 100% | residual activity [16] 100% | residual activity [17] 81.4% | residual activity [18] 100% | residual activity [19] 89.4% | residual activity [20] 100% | residual activity [21] 100% | residual activity [22] 100% | residual activity [23] 77.1% | residual activity [24] 100% | residual activity [25] 100% | residual activity [26] 92.6% | inhibition [27] -4.28% | residual activity [28] 86.1% | residual activity [29] 76% | residual activity [30] 92.3% | residual activity [32] 75.8% | residual activity [33] 90% | residual activity [34] 86.7% | residual activity [35] 100% | residual activity [36] 100% | residual activity [37] 80.3% | residual activity [38] 78.7% | residual activity [39] 100% | residual activity [40] 91.9% | residual activity [41] 96.6% | residual activity [42] 82.5% | residual activity [43] 63.9% | residual activity [44] 93.6% | residual activity [45] 77.3%

Cc1cc(Nc2nccc(C)n2)cc(-c2cnc([C@@]3(O)CC[C@H](C(=O)O)C(C)(C)C3)s2)c1 [MRL-SYKi]
active: residual activity [26] 31.8% | residual activity [33] 0.9% | residual activity [41] 45.5%
inactive: residual activity [1] 82.6% | residual activity [2] 100% | residual activity [3] 100% | inhibition [4] -3.52% | residual activity [5] 100% | residual activity [6] 100% | residual activity [7] 100% | residual activity [8] 81% | residual activity [9] 94.5% | residual activity [10] 100% | residual activity [11] 77.2% | residual activity [12] 67.3% | residual activity [13] 100% | residual activity [14] 100% | residual activity [15] 100% | residual activity [16] 100% | residual activity [17] 100% | residual activity [18] 100% | residual activity [19] 98.7% | residual activity [20] 100% | residual activity [21] 93.8% | residual activity [22] 100% | residual activity [23] 100% | residual activity [24] 83.3% | residual activity [25] 100% | inhibition [27] 0.943% | residual activity [28] 100% | residual activity [29] 100% | residual activity [30] 100% | inhibition [31] 39.3% | residual activity [32] 100% | residual activity [34] 100% | residual activity [35] 100% | residual activity [36] 98% | residual activity [37] 92.8% | residual activity [38] 100% | residual activity [39] 100% | residual activity [40] 100% | residual activity [42] 100% | residual activity [43] 100% | residual activity [44] 100% | residual activity [45] 89.9%

Source: ChEMBL document CHEMBL4507285, “Data for DCP probe MRL-SYKi” (2021)
